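Briefly, cells in 96-well plates were exposed to five compound concentrations for 48 h, and endpoints were estimated by linear interpolation. At the GI50, growth is halved. TGI is the concentration that stops growth completely.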
Tests used:
Experiment in all cases: inhibition of tumour cell growth, NCI panel, 48 h
CAKI-1 renal = tested on: CAKI-1 renal
COLO 205 colon = tested on: COLO 205 colon
BT-549 breast = tested on: BT-549 breast
SF-268 CNS = tested on: SF-268 CNS
HCT-116 colon = tested on: HCT-116 colon
EKVX NSCLC = tested on: EKVX NSCLC
MALME-3M melanoma = tested on: MALME-3M melanoma
UACC-62 melanoma = tested on: UACC-62 melanoma
IGROV1 ovarian = tested on: IGROV1 ovarian
SR leukemia = tested on: SR leukemia
OVCAR-3 ovarian = tested on: OVCAR-3 ovarian
SN12C renal = tested on: SN12C renal
SK-MEL-28 melanoma = tested on: SK-MEL-28 melanoma
HOP-62 NSCLC = tested on: HOP-62 NSCLC
HCC-2998 colon = tested on: HCC-2998 colon
786-0 renal = tested on: 786-0 renal
MDA-MB-435 = tested on: MDA-MB-435
NCI-H226 lung = tested on: NCI-H226 lung
SF-295 CNS = tested on: SF-295 CNS
U251 CNS = tested on: U251 CNS
DU-145 prostate = tested on: DU-145 prostate
TK-10 renal = tested on: TK-10 renal
CCRF-CEM leukemia = tested on: CCRF-CEM leukemia
M14 melanoma = tested on: M14 melanoma
OVCAR-4 ovarian = tested on: OVCAR-4 ovarian
UACC-257 melanoma = tested on: UACC-257 melanoma
SNB-19 CNS = tested on: SNB-19 CNS
HL-60(TB) leukemia = tested on: HL-60(TB) leukemia
NCI-H23 lung = tested on: NCI-H23 lung
SNB-75 CNS = tested on: SNB-75 CNS
K-562 leukemia = tested on: K-562 leukemia
A549 NSCLC = tested on: A549 NSCLC
RXF 393 renal = tested on: RXF 393 renal
KM12 colon = tested on: KM12 colon
ACHN renal = tested on: ACHN renal
A498 renal = tested on: A498 renal
PC-3 prostate = tested on: PC-3 prostate
RPMI-8226 leukemia = tested on: RPMI-8226 leukemia
SK-MEL-5 melanoma = tested on: SK-MEL-5 melanoma
NCI-H522 lung = tested on: NCI-H522 lung
OVCAR-8 ovarian = tested on: OVCAR-8 ovarian
HCT-15 colon = tested on: HCT-15 colon
OVCAR-5 ovarian = tested on: OVCAR-5 ovarian
UO-31 renal = tested on: UO-31 renal
SW-620 colon = tested on: SW-620 colon
LOX IMVI melanoma = tested on: LOX IMVI melanoma
SK-OV-3 ovarian = tested on: SK-OV-3 ovarian
HT29 colon = tested on: HT29 colon
HOP-92 NSCLC = tested on: HOP-92 NSCLC
MCF7 breast = tested on: MCF7 breast
HS 578T breast = tested on: HS 578T breast
NCI/ADR-RES ovarian = tested on: NCI/ADR-RES ovarian
NCI-H460 lung = tested on: NCI-H460 lung
SK-MEL-2 melanoma = tested on: SK-MEL-2 melanoma
SF-539 CNS = tested on: SF-539 CNS
MOLT-4 leukemia = tested on: MOLT-4 leukemia
MDA-MB-231 breast = tested on: MDA-MB-231 breast

Work on `CCCCCCCC(=O)OCC/C=C/C1OC1C1OC(=O)/C=C\C=C\C(=O)N(C(C)=O)C(=O)/C=C(/C)CCC2OC2C1OC(=O)NC(C)=O` (centres undefined) yielded a GI50 (CAKI-1 renal) of 15 µM, a TGI (CAKI-1 renal) greater than 25 µM and a GI50 (COLO 205 colon) of 3.27 µM. It also gave a TGI (COLO 205 colon) of 6.86 µM, a GI50 (BT-549 breast) of 6.43 µM and a TGI (BT-549 breast) greater than 25 µM. For the same compound, the GI50 (SF-268 CNS) was 4.6 µM, the TGI (SF-268 CNS) was 12.1 µM and the GI50 (HCT-116 colon) was 1.8 µM. The TGI (HCT-116 colon) was 4.97 µM, the GI50 (EKVX NSCLC) was greater than 25 µM and the TGI (EKVX NSCLC) was greater than 25 µM. It also gave a GI50 (MALME-3M melanoma) greater than 25 µM, a TGI (MALME-3M melanoma) greater than 25 µM and a GI50 (UACC-62 melanoma) of 6.27 µM. It also gave a TGI (UACC-62 melanoma) greater than 25 µM, a GI50 (IGROV1 ovarian) of 3.21 µM and a TGI (IGROV1 ovarian) of 8.28 µM. The GI50 (SR leukemia) was 4.48 µM, the TGI (SR leukemia) was greater than 25 µM and the GI50 (OVCAR-3 ovarian) was 4.07 µM. The TGI (OVCAR-3 ovarian) was 8.4 µM, the GI50 (SN12C renal) was 7.29 µM and the TGI (SN12C renal) was greater than 25 µM. For the same compound, the GI50 (SK-MEL-28 melanoma) was 5.12 µM, the TGI (SK-MEL-28 melanoma) was 14.3 µM and the GI50 (HOP-62 NSCLC) was 7.45 µM. The TGI (HOP-62 NSCLC) was greater than 25 µM, the GI50 (HCC-2998 colon) was 7.35 µM and the TGI (HCC-2998 colon) was 19.1 µM. It also gave a GI50 (786-0 renal) of 4.12 µM, a TGI (786-0 renal) of 11.1 µM and a GI50 (MDA-MB-435) of 5.85 µM. It also gave a TGI (MDA-MB-435) of 24.8 µM, a GI50 (NCI-H226 lung) of 18.9 µM and a TGI (NCI-H226 lung) greater than 25 µM. For the same compound, the GI50 (SF-295 CNS) was 2.16 µM, the TGI (SF-295 CNS) was 9.9 µM and the GI50 (U251 CNS) was 5.54 µM. The TGI (U251 CNS) was 15 µM, the GI50 (DU-145 prostate) was 4.45 µM and the TGI (DU-145 prostate) was 16.2 µM. The GI50 (TK-10 renal) was 6.91 µM, the TGI (TK-10 renal) was 22.2 µM and the GI50 (CCRF-CEM leukemia) was 0.734 µM. For the same compound, the TGI (CCRF-CEM leukemia) was greater than 25 µM, the GI50 (M14 melanoma) was 6.83 µM and the TGI (M14 melanoma) was greater than 25 µM. The GI50 (OVCAR-4 ovarian) was 7.37 µM, the TGI (OVCAR-4 ovarian) was greater than 25 µM and the GI50 (UACC-257 melanoma) was 9.38 µM. For the same compound, the TGI (UACC-257 melanoma) was greater than 25 µM, the GI50 (SNB-19 CNS) was greater than 25 µM and the TGI (SNB-19 CNS) was greater than 25 µM. The GI50 (HL-60(TB) leukemia) was 8.18 µM, the TGI (HL-60(TB) leukemia) was greater than 25 µM and the GI50 (NCI-H23 lung) was 5.07 µM. The TGI (NCI-H23 lung) was 12.8 µM, the GI50 (SNB-75 CNS) was 4.79 µM and the TGI (SNB-75 CNS) was 17.9 µM. It also gave a GI50 (K-562 leukemia) of 4.78 µM, a TGI (K-562 leukemia) greater than 25 µM and a GI50 (A549 NSCLC) of 21.6 µM. For the same compound, the TGI (A549 NSCLC) was greater than 25 µM, the GI50 (RXF 393 renal) was 4.34 µM and the TGI (RXF 393 renal) was 9.45 µM. For the same compound, the GI50 (KM12 colon) was 3.88 µM, the TGI (KM12 colon) was 11.7 µM and the GI50 (ACHN renal) was 2.14 µM. For the same compound, the TGI (ACHN renal) was 9.94 µM, the GI50 (A498 renal) was 22.6 µM and the TGI (A498 renal) was greater than 25 µM. For the same compound, the GI50 (PC-3 prostate) was 3.15 µM, the TGI (PC-3 prostate) was 8.04 µM and the GI50 (RPMI-8226 leukemia) was 0.959 µM. It also gave a TGI (RPMI-8226 leukemia) of 4.03 µM, a GI50 (SK-MEL-5 melanoma) of 7.03 µM and a TGI (SK-MEL-5 melanoma) greater than 25 µM. For the same compound, the GI50 (NCI-H522 lung) was 3.78 µM, the TGI (NCI-H522 lung) was 8.16 µM and the GI50 (OVCAR-8 ovarian) was 3.64 µM. The TGI (OVCAR-8 ovarian) was 16.6 µM, the GI50 (HCT-15 colon) was 5.13 µM and the TGI (HCT-15 colon) was 18.4 µM. It also gave a GI50 (OVCAR-5 ovarian) of 4.88 µM, a TGI (OVCAR-5 ovarian) of 11.5 µM and a GI50 (UO-31 renal) of 1.82 µM. The TGI (UO-31 renal) was 10.8 µM, the GI50 (SW-620 colon) was 6.42 µM and the TGI (SW-620 colon) was 24 µM. It also gave a GI50 (LOX IMVI melanoma) of 2.93 µM, a TGI (LOX IMVI melanoma) of 6.74 µM and a GI50 (SK-OV-3 ovarian) greater than 25 µM. It also gave a TGI (SK-OV-3 ovarian) greater than 25 µM, a GI50 (HT29 colon) of 4.03 µM and a TGI (HT29 colon) of 14.4 µM. For the same compound, the GI50 (HOP-92 NSCLC) was 0.823 µM, the TGI (HOP-92 NSCLC) was 7.38 µM and the GI50 (MCF7 breast) was 1.7 µM. It also gave a TGI (MCF7 breast) of 11.5 µM, a GI50 (HS 578T breast) of 5.22 µM and a TGI (HS 578T breast) of 15.8 µM. The GI50 (NCI/ADR-RES ovarian) was greater than 25 µM, the TGI (NCI/ADR-RES ovarian) was greater than 25 µM and the GI50 (NCI-H460 lung) was 11.4 µM. For the same compound, the TGI (NCI-H460 lung) was greater than 25 µM, the GI50 (SK-MEL-2 melanoma) was 6.46 µM and the TGI (SK-MEL-2 melanoma) was 20.4 µM. The GI50 (SF-539 CNS) was 3.68 µM, the TGI (SF-539 CNS) was 7.36 µM and the GI50 (MOLT-4 leukemia) was 10.1 µM. For the same compound, the TGI (MOLT-4 leukemia) was greater than 25 µM, the GI50 (MDA-MB-231 breast) was 10.5 µM and the TGI (MDA-MB-231 breast) was greater than 25 µM.

Source: PubChem BioAssay (NCI)
